Legend:
[1] = molecular target: T1, Inositol-Requiring Enzyme 1 (IRE1) (Homo sapiens, UniProt O75460); experiment: co-crystal structure ([…] Å); also TR-FRET kinase binding, HX-MS, RNase activation; set-up: gene ERN1; IRE1 KR (G547-L977), unphosphorylated (IRE1-0P)
[2] = molecular target: T2, FAK (Homo sapiens, UniProt Q05397); experiment: biochemical; set-up: Invitrogen kinase panel: Z'Lyte activity (ATP at Km) or LanthaScreen competitive ATP-site binding, percent inhibition
T2 construct: gene PTK2
T2 sequence (Q05397 whole entry): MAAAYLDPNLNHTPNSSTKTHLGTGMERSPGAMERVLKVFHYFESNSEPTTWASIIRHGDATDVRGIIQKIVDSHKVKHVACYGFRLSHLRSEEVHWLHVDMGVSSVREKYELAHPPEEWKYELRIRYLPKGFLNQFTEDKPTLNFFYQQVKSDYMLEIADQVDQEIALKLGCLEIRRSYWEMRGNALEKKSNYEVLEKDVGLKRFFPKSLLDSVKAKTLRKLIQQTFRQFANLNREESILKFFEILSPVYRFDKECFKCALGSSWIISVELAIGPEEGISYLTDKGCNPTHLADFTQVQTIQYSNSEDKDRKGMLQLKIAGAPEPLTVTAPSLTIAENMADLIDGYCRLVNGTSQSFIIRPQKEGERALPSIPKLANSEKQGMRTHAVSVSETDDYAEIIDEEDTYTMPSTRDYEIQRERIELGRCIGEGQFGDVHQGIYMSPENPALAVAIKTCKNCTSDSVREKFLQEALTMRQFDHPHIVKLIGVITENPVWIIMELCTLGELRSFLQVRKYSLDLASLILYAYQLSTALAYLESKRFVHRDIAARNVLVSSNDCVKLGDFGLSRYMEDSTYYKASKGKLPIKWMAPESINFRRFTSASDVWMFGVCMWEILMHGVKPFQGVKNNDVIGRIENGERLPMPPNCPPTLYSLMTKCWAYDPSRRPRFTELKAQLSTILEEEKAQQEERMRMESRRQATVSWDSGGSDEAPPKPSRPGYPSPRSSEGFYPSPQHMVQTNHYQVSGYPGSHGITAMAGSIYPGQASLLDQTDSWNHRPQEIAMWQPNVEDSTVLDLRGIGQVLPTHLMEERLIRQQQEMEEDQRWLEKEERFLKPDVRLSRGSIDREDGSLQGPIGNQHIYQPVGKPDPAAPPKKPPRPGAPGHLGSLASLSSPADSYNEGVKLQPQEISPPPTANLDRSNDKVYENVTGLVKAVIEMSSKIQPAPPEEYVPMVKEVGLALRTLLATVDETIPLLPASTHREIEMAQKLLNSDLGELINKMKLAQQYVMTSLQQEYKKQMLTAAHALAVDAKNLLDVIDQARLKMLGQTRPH

[3] = molecular target: T3, p38_gamma (Homo sapiens, UniProt P53778); experiment: biochemical; set-up: Invitrogen kinase panel: Z'Lyte activity (ATP at Km) or LanthaScreen competitive ATP-site binding, percent inhibition
T3 construct: gene MAPK12

[4] = molecular target: T4, CaMKII_beta (Homo sapiens, UniProt Q13554); experiment: biochemical; set-up: Invitrogen kinase panel: Z'Lyte activity (ATP at Km) or LanthaScreen competitive ATP-site binding, percent inhibition
T4 construct: gene CAMK2B

[5] = molecular target: T5, CaMKI_delta (Homo sapiens, UniProt Q8IU85); experiment: biochemical; set-up: Invitrogen kinase panel: Z'Lyte activity (ATP at Km) or LanthaScreen competitive ATP-site binding, percent inhibition
T5 construct: gene CAMK1D
T5 sequence (Q8IU85 whole entry): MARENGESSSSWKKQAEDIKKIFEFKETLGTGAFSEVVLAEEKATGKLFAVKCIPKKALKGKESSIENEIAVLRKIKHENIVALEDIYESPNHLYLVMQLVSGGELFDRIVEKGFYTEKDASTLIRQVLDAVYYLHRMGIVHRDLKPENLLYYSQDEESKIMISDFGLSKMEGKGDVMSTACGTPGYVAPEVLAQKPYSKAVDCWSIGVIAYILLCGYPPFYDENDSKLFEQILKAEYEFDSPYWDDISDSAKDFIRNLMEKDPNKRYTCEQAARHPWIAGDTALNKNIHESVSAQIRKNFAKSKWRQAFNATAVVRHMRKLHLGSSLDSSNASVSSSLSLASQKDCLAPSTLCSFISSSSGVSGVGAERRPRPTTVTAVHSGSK

[6] = molecular target: T6, IRE2 (Homo sapiens, UniProt Q76MJ5); experiment: biochemical; set-up: Invitrogen kinase panel: Z'Lyte activity (ATP at Km) or LanthaScreen competitive ATP-site binding, percent inhibition
T6 construct: gene ERN2

[7] = molecular target: T7, Ron (Homo sapiens, UniProt Q04912); experiment: biochemical; set-up: Invitrogen kinase panel: Z'Lyte activity (ATP at Km) or LanthaScreen competitive ATP-site binding, percent inhibition
T7 construct: gene MST1R

[8] = molecular target: TGFBR1 (Homo sapiens, UniProt P36897); experiment: biochemical; set-up: Invitrogen kinase panel: Z'Lyte activity (ATP at Km) or LanthaScreen competitive ATP-site binding, percent inhibition
Sequence of TGFBR1 (P36897 whole entry): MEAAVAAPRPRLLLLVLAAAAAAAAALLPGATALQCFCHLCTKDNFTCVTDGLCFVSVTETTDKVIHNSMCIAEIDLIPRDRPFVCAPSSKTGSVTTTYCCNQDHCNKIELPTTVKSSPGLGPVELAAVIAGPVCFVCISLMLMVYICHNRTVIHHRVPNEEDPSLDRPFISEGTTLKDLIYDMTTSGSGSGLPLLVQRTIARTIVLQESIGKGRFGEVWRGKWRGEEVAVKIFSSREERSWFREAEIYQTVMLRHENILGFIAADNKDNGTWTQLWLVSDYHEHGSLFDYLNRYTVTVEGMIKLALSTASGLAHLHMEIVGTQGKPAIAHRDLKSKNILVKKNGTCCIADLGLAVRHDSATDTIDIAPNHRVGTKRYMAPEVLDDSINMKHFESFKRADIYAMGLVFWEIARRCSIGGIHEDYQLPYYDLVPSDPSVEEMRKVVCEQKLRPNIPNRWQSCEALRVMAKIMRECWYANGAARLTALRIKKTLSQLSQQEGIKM

[9] = molecular target: T8, MST1 (Homo sapiens, UniProt Q13043); experiment: biochemical; set-up: Invitrogen kinase panel: Z'Lyte activity (ATP at Km) or LanthaScreen competitive ATP-site binding, percent inhibition
T8 construct: gene STK4

[10] = molecular target: T9, Rsk1 (Homo sapiens, UniProt Q15418); experiment: biochemical; set-up: Invitrogen kinase panel: Z'Lyte activity (ATP at Km) or LanthaScreen competitive ATP-site binding, percent inhibition
T9 construct: gene RPS6KA1
T9 sequence (Q15418 whole entry): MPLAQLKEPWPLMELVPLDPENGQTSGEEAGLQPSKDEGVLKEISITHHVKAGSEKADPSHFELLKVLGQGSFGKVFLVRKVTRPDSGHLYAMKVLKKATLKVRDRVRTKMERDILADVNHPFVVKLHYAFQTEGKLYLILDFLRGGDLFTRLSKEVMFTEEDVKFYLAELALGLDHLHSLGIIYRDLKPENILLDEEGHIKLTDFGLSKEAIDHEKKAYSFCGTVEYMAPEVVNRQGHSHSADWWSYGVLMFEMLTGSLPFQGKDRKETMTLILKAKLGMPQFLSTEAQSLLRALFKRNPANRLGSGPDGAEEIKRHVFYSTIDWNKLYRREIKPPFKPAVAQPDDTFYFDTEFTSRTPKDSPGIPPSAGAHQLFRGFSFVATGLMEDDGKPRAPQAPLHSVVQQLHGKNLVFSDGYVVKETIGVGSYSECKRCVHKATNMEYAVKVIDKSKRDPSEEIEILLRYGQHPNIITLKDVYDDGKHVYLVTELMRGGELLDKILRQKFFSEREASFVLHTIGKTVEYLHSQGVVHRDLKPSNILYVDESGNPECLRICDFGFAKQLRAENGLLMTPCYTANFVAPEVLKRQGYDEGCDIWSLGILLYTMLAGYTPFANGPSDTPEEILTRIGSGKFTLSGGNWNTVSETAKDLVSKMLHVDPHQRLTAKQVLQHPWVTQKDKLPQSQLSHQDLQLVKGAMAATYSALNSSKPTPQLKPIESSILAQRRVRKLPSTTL

[11] = molecular target: BMPR1A (Homo sapiens, UniProt P36894); experiment: biochemical; set-up: Invitrogen kinase panel: Z'Lyte activity (ATP at Km) or LanthaScreen competitive ATP-site binding, percent inhibition
[12] = molecular target: HIPK4 (Homo sapiens, UniProt Q8NE63); experiment: biochemical; set-up: Invitrogen kinase panel: Z'Lyte activity (ATP at Km) or LanthaScreen competitive ATP-site binding, percent inhibition
[13] = molecular target: EphA3 (Homo sapiens, UniProt P29320); experiment: biochemical; set-up: Invitrogen kinase panel: Z'Lyte activity (ATP at Km) or LanthaScreen competitive ATP-site binding, percent inhibition
[14] = molecular target: MAP4K4 (Homo sapiens, UniProt O95819); experiment: biochemical; set-up: Invitrogen kinase panel: Z'Lyte activity (ATP at Km) or LanthaScreen competitive ATP-site binding, percent inhibition
Sequence of MAP4K4 (O95819 whole entry): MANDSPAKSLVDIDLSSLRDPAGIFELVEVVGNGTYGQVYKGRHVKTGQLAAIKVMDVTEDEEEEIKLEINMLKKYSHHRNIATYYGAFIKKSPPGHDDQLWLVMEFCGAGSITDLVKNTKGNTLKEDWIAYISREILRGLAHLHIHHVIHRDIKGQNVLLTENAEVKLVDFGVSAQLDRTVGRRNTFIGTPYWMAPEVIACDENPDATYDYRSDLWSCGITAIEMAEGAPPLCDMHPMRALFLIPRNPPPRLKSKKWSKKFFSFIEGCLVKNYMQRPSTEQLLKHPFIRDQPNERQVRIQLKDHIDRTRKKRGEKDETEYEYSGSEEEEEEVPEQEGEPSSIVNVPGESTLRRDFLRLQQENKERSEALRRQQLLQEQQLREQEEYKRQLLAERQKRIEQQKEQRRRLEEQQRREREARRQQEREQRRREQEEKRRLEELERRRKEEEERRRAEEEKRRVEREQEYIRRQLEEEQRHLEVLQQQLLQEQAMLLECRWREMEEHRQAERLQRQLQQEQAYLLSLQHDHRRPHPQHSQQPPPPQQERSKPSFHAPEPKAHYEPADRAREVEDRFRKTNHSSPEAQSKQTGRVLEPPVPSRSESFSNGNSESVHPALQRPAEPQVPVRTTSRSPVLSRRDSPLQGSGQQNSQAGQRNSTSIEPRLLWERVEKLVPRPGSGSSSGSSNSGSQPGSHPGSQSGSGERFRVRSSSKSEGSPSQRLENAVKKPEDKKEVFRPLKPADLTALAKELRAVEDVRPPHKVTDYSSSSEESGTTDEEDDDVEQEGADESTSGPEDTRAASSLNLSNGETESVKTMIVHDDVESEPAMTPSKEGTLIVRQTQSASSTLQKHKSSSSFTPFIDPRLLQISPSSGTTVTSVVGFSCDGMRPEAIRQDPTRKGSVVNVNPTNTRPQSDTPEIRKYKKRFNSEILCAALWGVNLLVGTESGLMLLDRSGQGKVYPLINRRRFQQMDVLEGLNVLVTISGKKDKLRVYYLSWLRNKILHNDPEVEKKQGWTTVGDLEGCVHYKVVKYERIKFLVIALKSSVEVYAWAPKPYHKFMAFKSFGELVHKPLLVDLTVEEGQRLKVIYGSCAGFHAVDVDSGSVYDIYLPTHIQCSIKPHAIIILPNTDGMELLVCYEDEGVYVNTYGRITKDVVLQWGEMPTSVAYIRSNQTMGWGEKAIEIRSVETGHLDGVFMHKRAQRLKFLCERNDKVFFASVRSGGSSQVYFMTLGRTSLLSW

[15] = molecular target: JAK2 (Homo sapiens, UniProt O60674); experiment: biochemical; set-up: Invitrogen kinase panel: Z'Lyte activity (ATP at Km) or LanthaScreen competitive ATP-site binding, percent inhibition
Sequence of JAK2 (O60674 whole entry): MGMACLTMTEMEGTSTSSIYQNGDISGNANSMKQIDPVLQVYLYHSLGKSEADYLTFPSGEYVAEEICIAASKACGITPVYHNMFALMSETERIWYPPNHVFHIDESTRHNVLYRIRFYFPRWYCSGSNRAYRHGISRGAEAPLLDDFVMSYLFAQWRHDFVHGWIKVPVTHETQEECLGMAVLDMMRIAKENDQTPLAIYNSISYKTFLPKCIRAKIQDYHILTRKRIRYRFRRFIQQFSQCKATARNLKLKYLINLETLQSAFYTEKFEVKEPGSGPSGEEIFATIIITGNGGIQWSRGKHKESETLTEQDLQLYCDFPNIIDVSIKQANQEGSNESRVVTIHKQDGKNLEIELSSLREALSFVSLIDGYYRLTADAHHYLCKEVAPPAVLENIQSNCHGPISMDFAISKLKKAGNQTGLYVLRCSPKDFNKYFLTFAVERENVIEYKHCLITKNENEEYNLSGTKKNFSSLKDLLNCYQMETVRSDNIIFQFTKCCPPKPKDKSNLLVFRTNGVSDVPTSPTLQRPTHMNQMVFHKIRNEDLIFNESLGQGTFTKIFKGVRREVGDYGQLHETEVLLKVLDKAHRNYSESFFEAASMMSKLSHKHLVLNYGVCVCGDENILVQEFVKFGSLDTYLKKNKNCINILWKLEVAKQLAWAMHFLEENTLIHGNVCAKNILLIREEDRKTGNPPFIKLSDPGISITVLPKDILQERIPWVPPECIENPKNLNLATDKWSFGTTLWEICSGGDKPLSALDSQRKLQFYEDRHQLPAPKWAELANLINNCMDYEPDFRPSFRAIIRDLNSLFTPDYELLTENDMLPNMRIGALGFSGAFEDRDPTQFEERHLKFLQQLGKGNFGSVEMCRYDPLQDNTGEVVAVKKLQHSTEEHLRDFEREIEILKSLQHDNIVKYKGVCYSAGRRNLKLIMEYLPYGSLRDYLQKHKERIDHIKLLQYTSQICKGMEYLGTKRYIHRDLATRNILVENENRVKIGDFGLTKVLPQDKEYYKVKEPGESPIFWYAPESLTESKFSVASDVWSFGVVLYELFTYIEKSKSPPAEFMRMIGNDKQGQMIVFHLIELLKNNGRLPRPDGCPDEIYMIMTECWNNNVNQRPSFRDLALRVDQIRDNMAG

[16] = molecular target: Flt1 (Homo sapiens, UniProt P17948); experiment: biochemical; set-up: Invitrogen kinase panel: Z'Lyte activity (ATP at Km) or LanthaScreen competitive ATP-site binding, percent inhibition
[17] = molecular target: PIM1 (Homo sapiens, UniProt P11309); experiment: biochemical; set-up: Invitrogen kinase panel: Z'Lyte activity (ATP at Km) or LanthaScreen competitive ATP-site binding, percent inhibition
[18] = molecular target: Fes (Homo sapiens, UniProt P07332); experiment: biochemical; set-up: Invitrogen kinase panel: Z'Lyte activity (ATP at Km) or LanthaScreen competitive ATP-site binding, percent inhibition
[19] = molecular target: NEK6 (Homo sapiens, UniProt Q9HC98); experiment: biochemical; set-up: Invitrogen kinase panel: Z'Lyte activity (ATP at Km) or LanthaScreen competitive ATP-site binding, percent inhibition
[20] = molecular target: T1, Inositol-Requiring Enzyme 1 (IRE1); experiment: co-crystal structure ([…] Å); also TR-FRET kinase binding, HX-MS, SV-AUC, RNase activation; set-up: gene ERN1; unphosphorylated IRE1 cytoplasmic kinase-RNase (IRE1-0P)
[21] = molecular target: T10, PDGFR_beta (Homo sapiens, UniProt P09619); experiment: biochemical; set-up: Invitrogen kinase panel: Z'Lyte activity (ATP at Km) or LanthaScreen competitive ATP-site binding, percent inhibition
T10 construct: gene PDGFRB

[22] = molecular target: T11, FAK2 (Homo sapiens, UniProt Q14289); experiment: biochemical; set-up: Invitrogen kinase panel: Z'Lyte activity (ATP at Km) or LanthaScreen competitive ATP-site binding, percent inhibition
T11 construct: gene PTK2B

[23] = molecular target: T12, GCK (Homo sapiens, UniProt Q12851); experiment: biochemical; set-up: Invitrogen kinase panel: Z'Lyte activity (ATP at Km) or LanthaScreen competitive ATP-site binding, percent inhibition
T12 construct: gene MAP4K2

[24] = molecular target: Fyn (Homo sapiens, UniProt P06241); experiment: biochemical; set-up: Invitrogen kinase panel: Z'Lyte activity (ATP at Km) or LanthaScreen competitive ATP-site binding, percent inhibition

| Structure (SMILES) | inhibition at 1 µM [2] [%] | inhibition at 1 µM [3] [%] | inhibition at 1 µM [4] [%] | inhibition at 1 µM [5] [%] | inhibition at 1 µM [6] [%] | inhibition at 1 µM [7] [%] | inhibition at 1 µM [8] [%] | inhibition at 1 µM [9] [%] | inhibition at 1 µM [10] [%] | inhibition at 1 µM [11] [%] | inhibition at 1 µM [12] [%] | inhibition at 1 µM [13] [%] | inhibition at 1 µM [14] [%] | inhibition at 1 µM [15] [%] | inhibition at 1 µM [16] [%] | inhibition at 1 µM [17] [%] | inhibition at 1 µM [18] [%] | inhibition at 1 µM [19] [%] | other results |
| --- | --- | --- | --- | --- | --- | --- | --- | --- | --- | --- | --- | --- | --- | --- | --- | --- | --- | --- | --- |
| CCOC(=O)Nc1cccc2c(Oc3ncccc3-c3ccnc(N[C@H]4CCCNC4)n3)c(C)ccc12 [G-1749] | 1.5 | 18 | -2 | 0 | 9.5 | -6 | 5.5 | 1 | 3 | 0 | 3.8 | 1 | 31 | 2.5 | -1 | -5.5 | 5 | 2.5 | IC50 [1]: low-nanomolar |
| CC#CC(=O)Nc1cccc2c(Oc3ncccc3-c3ccnc(N[C@H]4CCCNC4)n3)c(C)ccc12 [G-7658] | 1.5 | 16.5 | 0.5 | 0.5 | 5.5 | 4 | 7.5 | -0.5 | 1.5 | 2 | 8 | 4.5 | 21.5 | 3 | -1.5 | -6 | 3.5 | 17.5 | – |
| O=c1cc(-c2n[nH]c3ncc(-c4c(F)cccc4F)cc23)nc(N2CCC(O)CC2)[nH]1 [G-9807] | – | – | – | – | – | – | – | – | – | – | – | – | – | – | – | – | – | – | IC50 [20]: low-nanomolar; inhibition at 1 µM [21]: 80.4%; inhibition at 1 µM [22]: 79.6%; inhibition at 1 µM [23]: 95.7%; inhibition at 1 µM [24]: 76.2% |
